This is an account of results in EP1914236A1 (Ortho-McNeil Pharmaceutical, Inc., priority 2002, dated 2003).

Molecules are shown by their SMILES.

The first assay has as its target T1, human B2 bradykinin receptors (Homo sapiens, UniProt P30411).
T1 construct: purchased Receptor Biology, Inc. (Baltimore, MD); host or cells: CHO-K1 cells transfected with the human B2 receptor (membranes)
T1 sequence (P30411 1-391): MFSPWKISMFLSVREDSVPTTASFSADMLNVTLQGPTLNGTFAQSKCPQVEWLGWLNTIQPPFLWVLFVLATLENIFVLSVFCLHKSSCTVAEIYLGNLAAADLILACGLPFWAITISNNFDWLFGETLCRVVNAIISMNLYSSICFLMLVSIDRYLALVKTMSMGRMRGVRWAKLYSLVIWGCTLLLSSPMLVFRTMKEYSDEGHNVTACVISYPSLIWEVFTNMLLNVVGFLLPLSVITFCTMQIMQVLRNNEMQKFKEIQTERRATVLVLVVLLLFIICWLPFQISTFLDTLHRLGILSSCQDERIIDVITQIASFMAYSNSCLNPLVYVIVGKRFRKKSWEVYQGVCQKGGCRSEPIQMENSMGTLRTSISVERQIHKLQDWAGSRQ
Briefly: Bradykinin B2 (BK2) Receptor Binding Assay. To be noted: membranes of CHO-K1 cells transfected with human B2 bradykinin receptors; ~0.25 nM [3H]NPC17731; 60 min at 25°C. As to the method:
Cell membranes of CHO-K1 cells transfected with human B2 bradykinin receptors (CH)-hB2) were purchased from Receptor Biology, Inc. (Baltimore,MD).
Samples were harvested on a Brandel Cell Harvester on to Wallac filtermat B sheets (96 sample format), and washed three times with 2 mL cold HEPES-buffer (10 mM, pH 7.5), and dried in a microwave oven.
The data were used to calculate either the % inhibition compared to control binding (when only a single concentration of test compound was evaluated) or a Ki value (when a range of concentrations were tested). Background was subtracted from mean cpm values and % inhibition was calculated as: [(total dpm-test compound dpm)/(total dpm-nonspecific dpm)]x100. Kd and Ki values were calculated using GraphPad PRISM data analysis program.
A word on the Ki: it is the dissociation constant of the complex between target and ligand, obtained from inhibition or displacement. Low readings indicate tighter binding, high ones weaker binding. Compound `CC(=O)Nc1ccc(C=CC(=O)NC[C@H]2CCCN2c2ccc(C)c(COc3cccc4ccc(C)nc34)c2C)cn1` [Compound 112, 3-(6-Acetytamino-pyridin-3-yl)-N-{1-[2,4-dimethyl-3-(2-methyl-quinolin-8-yloxymethyl)-phenyl]-pyrrolidin-2-(R)ylmethyl}-acrylamide.] displayed a Ki of 54 nM. Still for that read-out and setting: in the case of `Cc1ccc2cccc(OCc3c(Cl)ccc(N(C)C(=O)Cc4ccc(C(=O)c5ccc([N+](=O)[O-])c(C)c5)n4C)c3Cl)c2n1` [Compound 65, N-[2,4-Dichloro-3-(2-methyl-quinolin-8-yloxymethyl)-phenyl]-N-methyl-2-[1-methyl-5-(3-methyl-4-nitro-benzoyl)-1H-pyrrol-2-yl]-acetamide] it was 151 nM; in that of `COc1ccc(C(=O)c2ccc(CCC(=O)N(C)c3ccc(Cl)c(COc4cccc5ccc(C)nc45)c3Cl)s2)cc1` [Compound 107], 321 nM. Regarding `Cc1ccc2cccc(OCc3c(C)ccc(N(C)C(=O)Cc4ccc(-c5ccccc5)n4C)c3C)c2n1` [Compound 97, N-[2,4-Dimethyl-3-(2-methyl-quinolin-8-yloxymethyl)-phenyl]-N-methyl-2-(1-methyl-5-phenyl-1 H-pyrrol-2-yl)-acetamide], affinity was put at a Ki of 7190 nM. In turn, `CCCN(C(=O)Cc1ccc(C(=O)c2ccc(C#N)cc2)n1C)c1ccc(Cl)c(COc2cccc3ccc(C)nc23)c1Cl` [Compound 19, 2-[5-(4-Cyano-benzoyl)-1-methyl-1H-pyrrol-2-yl]-N-[2,4-dichloro-3-(2-methyl-quinolin-8-yloxymethyl)-phenyl]-N-propyl-acetamide] showed a Ki of 3890 nM.

Compound `COc1ccc(-c2ccc(CC(=O)N(C)c3ccc(C)c(COc4cccc5ccc(C)nc45)c3C)n2C)cc1` [Compound 96, N-[2,4-Dimethyl-3-(2-methyl-quinolin-8-yloxymethyl)-phenyl]-2-[5-(4-methoxyphenyl)-1-methyl-1H-pyrrol-2-yl]-N-methyl-acetamide] displayed a Ki of 2120 nM. The compound `Cc1ccc2cccc(OCc3c(Cl)ccc(N(C)C(=O)Cc4ccc(C(=O)C5CC5)n4C)c3Cl)c2n1` [Compound 32] registered a Ki of 1530 nM. The compound `Cc1ccc2cccc(OCc3c(Cl)ccc(N(C)C(=O)Cc4ccc(C(=O)c5ccccn5)n4C)c3Cl)c2n1` [Compound 45] displayed a Ki of 579 nM. For `Cc1ccc2cccc(OCc3c(Cl)ccc(N(C)C(=O)Cc4cc(C(=O)c5ccc(C#N)cc5)cs4)c3Cl)c2n1` [Compound 115, 2-[4-(4-Cyano-benzoyl)-thiophen-2-yl]-N-[2,4-dichloro-3-(2-methyl-quinolin-8-yloxymethyl)-phenyl]-N-methyl-acetamide], the inhibitory constant (Ki) stood at 6.4 nM.

`Cc1ccc2cccc(OCc3c(Cl)ccc(N(C)C(=O)Cc4cc(C(=O)c5ccc(S(C)(=O)=O)cc5)cn4C)c3Cl)c2n1` [Compound 1, N-[2,4-Dichloro-3-(2-methyl-quinolin-8-yloxymethyl)-phenyl]-2-[4-(4-methanesulfonyl-benzoyl)-1-methyl-1 H-pyrrol-2-yl]-N-methyl-acetamide] returned a Ki of 2910 nM.

In the case of `Cc1ccc2cccc(OCc3c(C)ccc(N(C)C(=O)CCc4ccc(C(=O)c5ccccc5)s4)c3C)c2n1` [Compound 104], the Ki turned out to be 554 nM. The compound `Cc1ccc2cccc(OCc3cccc(N(C)C(=O)Cc4ccc(C(=O)c5cccc(C#N)c5)n4C)c3Cl)c2n1` [Compound 116, N-[2-Chloro-3-(2-methyl-quinolin-8-yloxymethyl)-phenyl]-2-[5-(3-cyanobenzoyl)-1-methyl-1 H-pyrrol-2-yl]-N-methyl-acetamide] yielded a Ki of 17600 nM. `Cc1ccc2cccc(OCc3c(Cl)ccc(N(C)C(=O)Cc4ccc(C(=O)c5ccccc5)n4C)c3Cl)c2n1` [Compound 29] gave an inhibition constant (Ki) of 2290 nM. Against the preceding compound, the Ki is about 7.7-fold lower. Still for that read-out and setting: as for `Cc1ccc2cccc(OCc3c(Cl)ccc(N(C)C(=O)Cc4ccc(C(=O)c5ccsc5)n4C)c3Cl)c2n1` [Compound 55], the figure is 341 nM; as for `Cc1nc2c(OCc3c(Cl)ccc(N(C)C(=O)Cc4ccc(C(=O)c5ccc(S(C)(=O)=O)cc5)n4C)c3Cl)cccn2c1Br` [Compound 103, N-[3-(3-Bromo-2-methyl-imidazo[1,2-a]pyridin-8-yloxymethyl)-2,4-dichlorophenyl]-2-[5-(4-methanesulfonyl-benzoyl)-1-methyl-1H-pyrrol-2-yl]-N-methyl-acetamide], 68.5 nM; as for `Cc1ccc2cccc(OCc3c(Cl)ccc(N(C)C(=O)Cc4ccc(C(=O)c5ccc(Cl)s5)n4C)c3Cl)c2n1` [Compound 25], 4180 nM.

With `Cc1ccc2cccc(OCc3c(Cl)ccc(N(C)C(=O)Cc4ccc(C(=O)c5ccccc5)s4)c3Cl)c2n1` [Compound 109, 2-(5-Benzoyl-thiophen-2-yl)-N-[2,4-dichloro-3-(2-methyl-quinolin-8-yloxymethyl)-phenyl]-N-methyl-acetamide], the inhibition constant (Ki) was determined as 53 nM. The same measure, in the same setting: as for `Cc1ccc2cccc(OCc3c(Cl)ccc(N(C)C(=O)Cc4ccc(C(=O)c5cccnc5)n4C)c3Cl)c2n1` [Compound 33], the figure is 1390 nM; as for `Cc1ccc2cccc(OCc3c(Cl)ccc(N(C)C(=O)Cc4ccc(C(=O)c5ccc(C)s5)n4C)c3Cl)c2n1` [Compound 41], 704 nM; as for `C=CCN(C(=O)Cc1ccc(C(=O)c2ccc(C#N)cc2)n1C)c1ccc(Cl)c(COc2cccc3ccc(C)nc23)c1Cl` [Compound 21], 514 nM. In turn, `Cc1ccc2cccc(OCc3c(Cl)ccc(N(C)C(=O)Cc4ccc(C(=O)c5ccc(CN(C)C)cc5)n4C)c3Cl)c2n1` [Compound 47] came in with a Ki of 515 nM.

As to `Cc1ccc2cccc(OCc3c(Cl)ccc(N(C)C(=O)Cc4ccc(C(=O)c5cccc(C#N)c5)n4C)c3Cl)c2n1` [Compound 44], the affinity corresponds to a Ki of 643 nM. This Ki and that of the compound before are within 1.5-fold of each other. Compound `Cc1ccc2cccc(OCc3c(Cl)ccc(N(C)C(=O)Cc4ccc(C(=O)c5ccc(S(N)(=O)=O)cc5)n4C)c3Cl)c2n1` [Compound 70] came in with a Ki of 162 nM. The same measure, in the same setting: in the case of `Cc1ccc2cccc(OCc3c(Cl)ccc(N(C)C(=O)CCc4ccc(C(=O)c5ccccc5)s4)c3Cl)c2n1` [Compound 105] it was 882 nM; in that of `Cc1ccc(C(=O)c2ccc(CC(=O)N(C)c3ccc(Cl)c(COc4cccc5ccc(C)nc45)c3Cl)n2C)cc1` [Compound 54], 356 nM; in that of `Cc1ccc2cccc(OCc3c(Cl)ccc(N(C)C(=O)Cc4ccc(C(=O)C(C)(C)C)n4C)c3Cl)c2n1` [Compound 31], 1710 nM.

As for `Cc1ccc2cccc(OCc3c(Cl)ccc(NC(=O)Cc4cc(C)c(C(=O)c5ccc(N)cc5)n4C)c3Cl)c2n1` [Compound 121], the affinity corresponds to a Ki of 19800 nM.

In turn, `Cc1ccc2cccc(OCc3c(Cl)ccc(N(C)C(=O)Cc4ccc(C(=O)c5cccc6ccccc56)n4C)c3Cl)c2n1` [Compound 38] yielded a Ki of 807 nM. `CC(=O)Nc1ccccc1C(=O)c1ccc(CC(=O)N(C)c2ccc(Cl)c(COc3cccc4ccc(C)nc34)c2Cl)n1C` [Compound 36] returned a Ki of 869 nM.

`Cc1ccc2cccc(OCc3c(Cl)ccc(N(C)C(=O)Cc4ccc(C(=O)c5ccc(F)cc5)n4C)c3Cl)c2n1` [Compound 34] showed an inhibition constant (Ki) of 1150 nM.

The target of the next assay is T2, CHO-hB2 cell membranes (Homo sapiens, UniProt P30411).
T2 construct: purchased Receptor Biology, Inc. (Baltimore, MD); host or cells: CHO-hB2 cells (membranes)
T2 sequence (P30411 1-391): T1 sequence (P30411 1-391)
Briefly: [35S]GTPγS Binding Assay in CHO-hB2 Cell Membranes. The format is biochemical. To be noted: number in parentheses; bradykinin-stimulated [35S]GTPγS binding; test concentration not given. The method, then: CHO-hB2 cell membranes were purchased from Receptor Biology, Inc. (Baltimore,MD). 10 mg/mL of membrane protein was suspended in 10 mM TRIS-HC pH 7.2, 2 mM EDTA, 10% sucrose.
Membranes were added into 15 mL ice cold binding assay buffer. The assay buffer contained 50 mM HEPES, pH 7.6, 5 mM MgCl2, 100 mM NaCl, 1 mM DTT and 1 mM EDTA. The membrane suspension was homogenized twice with a Polytron and centrifuged at 3000 rpm for 10 min. The supernatant was then centrifuged at 18,000 rpm for 20 min. The pellet was saved in a tube and resuspended.
The pellet membranes (40 µg/mL) were preincubated with SPA (scintillation proximity assay) beads (20 mg/mL) at 25C° for 45 min in the assay buffer. The SPA beads (5 mg/mL) coupled with membranes (10 µg/mL) were then incubated with 0.5 nM [^35S]GTPγS in the same HEPES buffer containing 50 µM GDP in total volume of 200 µL. Bradykinin was used to stimulate [^35S]GTPγS binding. Varying concentrations of drugs were incubated with bradykinin to inhibit bradykinin-stimulated [^35S]GTPγS binding. The basal binding was tested in the absence of bradykinin and no specific binding was tested in the present 10 µM unlabeled GTPγS. The radioactivity was quantified on a Packard Top Count, and calculated. % of Basal = (stimulated binding-non specific binding)/(basal binding-non specific binding) × 100. [formula]
For the compound `CC(=O)Nc1ccc(C=CC(=O)NC[C@H]2CCCN2c2ccc(C)c(COc3cccc4ccc(C)nc34)c2C)cn1` [Compound 112, 3-(6-Acetytamino-pyridin-3-yl)-N-{1-[2,4-dimethyl-3-(2-methyl-quinolin-8-yloxymethyl)-phenyl]-pyrrolidin-2-(R)ylmethyl}-acrylamide.], the “Functional Activity (% Basal)” value turned out to be 59 % Basal. In the case of `Cc1ccc2cccc(OCc3c(Cl)ccc(N(C)C(=O)Cc4ccc(C(=O)c5ccc([N+](=O)[O-])c(C)c5)n4C)c3Cl)c2n1` [Compound 65, N-[2,4-Dichloro-3-(2-methyl-quinolin-8-yloxymethyl)-phenyl]-N-methyl-2-[1-methyl-5-(3-methyl-4-nitro-benzoyl)-1H-pyrrol-2-yl]-acetamide], the “Functional Activity (% Basal)” value came out at 35 % Basal.

Still in this assay, the particulars now being: word part of the cell; effect on bradykinin-stimulated [35S]GTPγS binding.
Turning to `CC(=O)Nc1ccc(C=CC(=O)NC[C@H]2CCCN2c2ccc(C)c(COc3cccc4ccc(C)nc34)c2C)cn1` [Compound 112, 3-(6-Acetytamino-pyridin-3-yl)-N-{1-[2,4-dimethyl-3-(2-methyl-quinolin-8-yloxymethyl)-phenyl]-pyrrolidin-2-(R)ylmethyl}-acrylamide.], the “Functional Activity” value is reported as “Antagonist”. On the same count and under the same terms, as for `Cc1ccc2cccc(OCc3c(Cl)ccc(N(C)C(=O)Cc4ccc(C(=O)c5ccc([N+](=O)[O-])c(C)c5)n4C)c3Cl)c2n1` [Compound 65, N-[2,4-Dichloro-3-(2-methyl-quinolin-8-yloxymethyl)-phenyl]-N-methyl-2-[1-methyl-5-(3-methyl-4-nitro-benzoyl)-1H-pyrrol-2-yl]-acetamide], the entry is “Antagonist”. On the same count and under the same terms, as for `Cc1ccc2cccc(OCc3c(Cl)ccc(NC(=O)Cc4ccc(C(=O)c5ccc(C#N)cc5)n4C)c3Cl)c2n1` [Compound 15], the entry is “Weak antagonist”.
